Where two headings read alike, the source gives them in different places.
Legend:
mouse tail arteries = test: Agonist-induced vasoconstriction in isolated mouse tail artery, with influence of cold; assay type: cell-based; conditions: for constriction of proximal and distal segments of mouse tail arteries: 10^−9 to 3×10^−7M, 37° C.; for influence of cold on the constrictor response to the agonist: distal segments, 28° C. versus 37° C.
Method: Small arteries were allowed to equilibrate for 30-40 min at a transmural pressure (PTM) of 60 mmHg before addition of α1 and α2-AR agonists and antagonists. […] Following completion of the concentration-effect curve, the influence of the agonists was terminated by repeatedly exchanging the buffer solution and allowing the artery to return to its stable baseline level.
Vasomotor responses were expressed as a percentage change in internal diameter (ID) prior to administrating the agent. Because of the phasic behavior of the vasomotion in distal. tail arteries, the signal was electronically averaged (BIOPAC software, smoothing factor of 2000) in order to obtain diameter measurements. Functional data is expressed as means±SEM for n number of experiments, where n equals the number of animals from which blood vessels were studied. Antagonist dissociation constants (KD) were determined either from Arunlakshana and Schild plots or according to the formula: KD=[Ant]/(CR-1), where [Ant] is the concentration of antagonist, and CR the ratio of agonist-concentrations producing equal responses in the presence and absence of the antagonist. […] Statistical evaluation of the data was performed by Student's t-test for either paired or unpaired observations. […]

[1] = tested on: control and SSc arterioles; test: Agonist-induced vasoconstriction in human dermal arterioles from control and SSc subjects; assay type: cell-based; conditions: for constriction: 1 μM of the agonist; for Emax: Homo sapiens
Source text: Skin biopsies (6 mm punch) were obtained from the same location on the medial aspect on the upper arm of patients and control subjects. Eleven patients with diffuse cutaneous SSc were studied: nine female and two male. Their average age was 49 years old (range 33 to 69) and they had SSc for an average of 4 years (range 1 to 9 years from first physician diagnosis of SSc). SSc patients were recruited from the Johns Hopkins and University of Maryland Scleroderma Center. All patients met the American College of Rheumatology criteria for a diagnosis of SSc. Biopsy of the skin was performed in the upper arm in an area considered to have normal skin thickness determined by clinical palpation (clinically-uninvolved skin). Patients with overlap syndromes (e.g. lupus) were excluded. Patient medications varied between individuals: anti-inflammatory /immunosuppressant, 4 patients on prednisone, 1 on methotrexate, 1 on cyclophosphamide, and 1 on D-penicillamine; gastrointestinal, 5 on omeprazole, 3 on cisapride, 2 on ranitidine, 1 on lansoprazole; angiotensin converting enzyme inhibitors, 3 on enalapril, 1 on lisinopril; angiotensin receptor antagonists, 1 on losartin, 1 on valsartin; calcium antagonists, 2 on nifedipine, 1 on verapamil, 1 on amlodipine, 1 on diltiazem; α1-adrenergic receptor antagonists, 1 on terazosin. Vasoconstrictor responses to the α1-adrenergic receptor (α1-AR) agonist, phenylephrine, were not included for the patient receiving terazosin. Eight normal subjects were analyzed: six female and two males with an average age of 50 years old (range 38 to 62). All patients and volunteers gave informed consent and the study was approved by the Johns Hopkins University human subjects IRB committee.
Arterioles were dissected from the deep dermal plexus of the biopsies and any side branches tied. […] The arterioles were cannulated with glass micropipettes and placed in a microvessel chamber as previously describe. The arterioles were maintained in no-flow state at a constant transmural pressure (PTM)of 40 mmHg. The chamber was superfused with buffer solution (37° C., pH 7.4, gassed with 16% O2-5% CO2-balance N2) and placed on stage of an inverted microscope for continuous monitoring of internal diameter using a video camera and video dimension analyzer.
Vasoconstriction was assessed in response to: i) KCl (15 to 60 mM), ii) the selective α1-AR agonist, phenylephrine (0.01 to 1 μM) (SIGMA, St Louis, Mo.), or iii) the selective α2-AR agonist, UK 14,304 (1 to 100 nM) (brimonidine, 5-bromo-N-(4,5-dihydro-1H-imidazol-2-yl)-6-quinoxalinamine, RBI, Natick, Mass.). Responses to UK 14,304 were also evaluated following denudation of the endothelium, achieved by carefully placing a wire (70μdiameter) through the vessel lumen. Endothelium-removal was confirmed by histology and by loss of response to the endothelial stimuli acetylcholine or bradykinin.
Responses were expressed as a percentage change in baseline diameter. Data is expressed as means±SEM for n number of experiments, where n equals the number of subjects from which blood vessels were studied. Concentration-effect curves were analyzed by comparing: i) maximal responses (vasoconstriction or dilatation), and ii) the area under the curve (AUC). Statistical evaluation of the data was performed using paired or unpaired t-tests. Responses were considered to be statistically different when P was less than 0.05.

Mouse Tail Artery = test: Antagonism of UK 14,304-induced vasoconstriction in isolated pressurised distal mouse tail artery; assay type: cell-based; conditions: for −log KD: n=4; for Kd: versus UK 14,304, distal tail artery; for effect on vasoconstrictor response to UK 14,304: cold (28° C.), ARC 0239 50 nM, MK912 3×10^−10M; for effect on vasoconstrictor response to UK 14,304 / effect on vasoconstriction to the α2-AR agonist UK 14,304: BRL 44408 100 and 1000 nM; for effect on vasoconstriction to the α2-AR agonist UK 14,304: warm temperatures (37° C.), ARC 239 50 nM, MK 912 0.3 nM
Source text: Male mice (C57BL6) were euthanized by CO2 asphyxiation. Proximal and/or distal segments of tail artery were then rapidly removed and placed in cold Krebs-Ringer bicarbonate solution (in mM): 118.3 NaCl, 4.7 KCl, 1.2 MgSO4, 1.2 KH2PO4, 2.5 CaCl2, 25.0 NaHCO3, 11. glucose (control solution). The small arteries were cannulated at both ends with glass micropipettes, secured using 12-0 nylon monofilament suture and placed in a microvascuiar chamber (Living Systems, Burlington, Vt.). The arteries were maintained at a constant transmural pressure of 60 mmHg in the absence of flow. The chamber was superfused with control solution and maintained at 37° C., pH 7.4, and gassed with 16% O2-5% CO2-balance N2. The chamber was placed on the stage of an inverted microscope (X20, Nikon TMS-F, Japan) connected to a video camera (Panasonic, CCTV camera, Japan). The vessel image was projected onto a video monitor and the internal diameter continuously determined by a video dimension analyzer (Living Systems Instrumentation, Burlington Vt.) and monitored using a BIOPAC (Santa Barbara, Calif.) data acquisition system (Gateway Dimensions Pentium Computer).
Small arteries were allowed to equilibrate for 30-40 min at a transmural pressure (PTM) of 60 mmHg before addition of α1 and α2-AR agonists and antagonists. Concentration-effect curves to the selective α1-AR agonist, phenylephrine, or the selective α2-AR agonist, UK 14,304 (brimonidine, 5-bromo-N-(4,5-dihydro-1H-imidazol-2-yl)-6-quinoxalinamine) were generated by increasing the concentration of the agonists in half-log increments, once the constriction to the previous concentration had stabilized. Following completion of the concentration-effect curve, the influence of the agonists was terminated by repeatedly exchanging the buffer solution and allowing the artery to return to its stable baseline level.
To evaluate the effect of selective α2-AR antagonists on vasoconstriction, concentration-effect curves to UK 14,304 were determined under control conditions and in the presence of the selective α2A-AR antagonist, BRL 44408 (100 and 1000 nM), the selective α2B-AR antagonist ARC 0239 (50 nM) or the selective α2C-AR antagonist MK 912 (0.3 nM) (Table 1). When these receptor antagonists were used, the preparations were incubated for 30 min with the drugs prior to, and also during, exposure of the arteries to the agonists. When analyzing the influence of cold on α-AR responsiveness, the temperature of the superfusate was decreased to 28° C. for 30 min prior to commencing a concentration effect curve to the constrictor agonists. This provides sufficient time for the effect of cold on adrenergic reactivity to stabilize.
Vasomotor responses were expressed as a percentage change in internal diameter (ID) prior to administrating the agent. Because of the phasic behavior of the vasomotion in distal. tail arteries, the signal was electronically averaged (BIOPAC software, smoothing factor of 2000) in order to obtain diameter measurements. Functional data is expressed as means±SEM for n number of experiments, where n equals the number of animals from which blood vessels were studied. Antagonist dissociation constants (KD) were determined either from Arunlakshana and Schild plots or according to the formula: KD=[Ant]/(CR-1), where [Ant] is the concentration of antagonist, and CR the ratio of agonist-concentrations producing equal responses in the presence and absence of the antagonist. […] Statistical evaluation of the data was performed by Student's t-test for either paired or unpaired observations. When more than two means were compared, analysis of variance was used. If a significant F value was found, Scheffe's test for multiple comparisons was employed to identify differences among groups. Values were considered to be statistically different when P was less than 0.05.

α-2A = target: T1, α-2A (Homo sapiens, UniProt P08913); conditions: cited from earlier work
T1 sequence (P08913 1-465): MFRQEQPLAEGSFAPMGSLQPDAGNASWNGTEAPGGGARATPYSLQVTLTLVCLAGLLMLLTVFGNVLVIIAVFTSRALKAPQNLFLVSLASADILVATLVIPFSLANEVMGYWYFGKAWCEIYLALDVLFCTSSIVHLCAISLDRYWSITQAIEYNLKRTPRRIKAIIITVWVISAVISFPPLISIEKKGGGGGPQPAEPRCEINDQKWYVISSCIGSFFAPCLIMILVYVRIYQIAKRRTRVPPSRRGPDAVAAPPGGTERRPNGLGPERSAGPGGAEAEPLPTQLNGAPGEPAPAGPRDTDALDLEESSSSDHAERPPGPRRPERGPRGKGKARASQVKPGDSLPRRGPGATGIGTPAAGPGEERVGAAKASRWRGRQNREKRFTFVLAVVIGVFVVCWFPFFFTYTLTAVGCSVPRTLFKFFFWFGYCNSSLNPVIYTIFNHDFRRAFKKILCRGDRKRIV

α-2B = target: T2, α-2B (Homo sapiens, UniProt P18089); conditions: cited from earlier work
T2 sequence (P18089 1-450): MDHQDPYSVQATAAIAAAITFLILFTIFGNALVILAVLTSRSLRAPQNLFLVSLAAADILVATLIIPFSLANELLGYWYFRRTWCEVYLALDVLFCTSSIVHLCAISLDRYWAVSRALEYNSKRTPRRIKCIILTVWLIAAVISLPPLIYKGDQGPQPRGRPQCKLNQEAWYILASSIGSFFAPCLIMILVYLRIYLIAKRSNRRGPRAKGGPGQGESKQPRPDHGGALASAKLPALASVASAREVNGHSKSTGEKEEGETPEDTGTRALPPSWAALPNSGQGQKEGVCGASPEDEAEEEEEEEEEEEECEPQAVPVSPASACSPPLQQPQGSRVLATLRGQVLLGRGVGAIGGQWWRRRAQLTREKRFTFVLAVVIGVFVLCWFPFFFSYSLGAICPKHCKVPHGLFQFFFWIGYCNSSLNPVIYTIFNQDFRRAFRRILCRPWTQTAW

α-2C = target: T3, α-2C (Homo sapiens, UniProt P18825); conditions: cited from earlier work
T3 sequence (P18825 1-462): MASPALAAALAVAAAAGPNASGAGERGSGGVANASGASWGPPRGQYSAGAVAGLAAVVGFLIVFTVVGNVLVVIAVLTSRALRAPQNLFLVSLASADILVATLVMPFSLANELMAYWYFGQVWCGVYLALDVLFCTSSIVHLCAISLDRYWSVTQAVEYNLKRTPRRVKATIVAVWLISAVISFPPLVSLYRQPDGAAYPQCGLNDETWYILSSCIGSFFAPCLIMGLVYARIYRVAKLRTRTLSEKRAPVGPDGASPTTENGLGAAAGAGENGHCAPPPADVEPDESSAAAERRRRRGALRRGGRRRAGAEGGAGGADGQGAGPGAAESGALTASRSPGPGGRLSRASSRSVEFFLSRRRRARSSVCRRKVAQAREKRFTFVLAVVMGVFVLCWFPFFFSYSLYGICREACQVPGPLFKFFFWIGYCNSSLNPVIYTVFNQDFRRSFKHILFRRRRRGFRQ

[2] = 28° C. (cold), read-out: KD Mouse Tail Artery 28° C.
[3] = 37° C. (warm), read-out: KD Mouse Tail Artery 37° C.

Compound | constriction of proximal and distal segments of mouse tail arteries (mouse tail arteries) | influence of cold on the constrictor response to the agonist (mouse tail arteries) | constriction ([1]; SSc arterioles) | constriction ([1]; control arterioles) | −log KD (Mouse Tail Artery; 28° C. (cold)) | Kd (Mouse Tail Artery; [2]) | effect on cold-induced amplification of the α2-AR response (Mouse Tail Artery; 28° C. versus 37° C., UK 14,304) | Kd (Mouse Tail Artery; [3]) | −log KD (Mouse Tail Artery; 37° C., Arunlakshana and Schild plot) | effect on vasoconstrictor response to UK 14,304 (Mouse Tail Artery) | effect on vasoconstriction to the α2-AR agonist UK 14,304 (Mouse Tail Artery) | Kd (α-2A) | Kd (α-2B) | Kd (α-2C) | Emax ([1]; SSc arterioles with endothelium, 1-100 nM, read-out: maximal response to the agonist (constriction)) | Emax ([1]; control arterioles with endothelium, 1-100 nM, read-out: maximal response to the agonist (constriction)) | Emax ([1]; endothelium-denuded SSc arterioles, read-out: maximal response (constriction)) | Emax ([1]; endothelium-denuded control arterioles, read-out: maximal response (constriction)) | expected shift in concentration-effect curves generated by α2B-AR stimulation (Mouse Tail Artery; based on the Table 1 KD, antagonist at 50 nM)
CNC[C@H](O)c1cccc(O)c1 [phenylephrine] | caused concentration-dependent constriction | did not affect | 45±7% | 45±8% | – | – | – | – | – | – | – | – | – | – | – | – | – | – | –
CC1c2ccccc2CN1CC1=NCCN1 (stereo not shown) [BRL 44408] | – | – | – | – | 7.54 ± 0.10 | 29 nM | did not reduce | 20 nM | 7.69±0.13 | reduced | inhibited | 13 nM | 174 nM | 187 nM | – | – | – | – | –
Brc1c(NC2=NCCN2)ccc2nccnc12 [UK 14,304, 5-bromo-N-(4,5-dihydro-1H-imidazol-2-yl)-6-quinoxalinamine] | caused concentration-dependent constriction | dramatically and reversibly increased | – | – | – | – | – | – | – | – | – | – | – | – | 67 ± 4% | 25 ± 5% | 67 ± 10% | 25 ± 7% | –
COc1ccccc1N1CCN(CCN2C(=O)c3ccccc3C(C)(C)C2=O)CC1 [ARC 239] | – | – | – | – | – | > 50 nM | – | > 50 nM | – | not inhibited | not inhibited | 256 nM | 4.6 nM | 51 nM | – | – | – | – | ~10 fold

Reference: US6444681B1, “Methods and compositions for treating Raynaud's Phenomenon and scleroderma” (The Ohio State University Research Foundation, priority 2000, dated 2002)
